# Key:
# CRBN−/− MOLT4 cells = test: CellTiter-Glo cell viability, 72 hours; type: cell-based
# MOLT4 proteome = test: Multiplexed quantitative mass spectrometry-based proteomics in MOLT4 cells; type: cell-based, human; details: 100 nM
# Experimental: MOLT4 cells were treated with DMSO or 100 nM of compound 13 for 2 or 4 hours in biological triplicates and lenalidomide in biological duplicates for 4 hours and cells were harvested by centrifugation. Lysis buffer (8 M Urea, 50 mM NaCl, 50 mM 4-(2hydroxyethyl)-1-piperazineethanesulfonic acid (EPPS) pH 8.5, Protease and Phosphatase inhibitors from Roche) was added to the cell pellets and homogenized by 20 passes through a 21 gauge (1.25 in. long) needle to achieve a cell lysate with a protein concentration between 1-4 mg mL^−1. A micro-BCA assay (Pierce™) was used to determine the final protein concentration of protein in the cell lysate. 200 μg of protein for each sample were reduced and alkylated as previously described in Donovan et al., Elife 7:e38430 (2018).
# Proteins were precipitated using methanol/chloroform. In brief, four volumes of methanol were added to the cell lysate, followed by one volume of chloroform, and finally three volumes of water. The mixture was vortexed and centrifuged to separate the chloroform phase from the aqueous phase. The precipitated protein was washed with three volumes of methanol, centrifuged and the resulting washed precipitated protein was allowed to air dry. Precipitated protein was resuspended in 4 M Urea, 50 mM HEPES pH 7.4, followed by dilution to 1 M urea with the addition of 200 mM EPPS, pH 8. Proteins were first digested with LysC (1:50; enzyme: protein) for 12 hours at room temperature. The LysC digestion was diluted down to 0.5 M Urea with 200 mM EPPS pH 8 and then digested with trypsin (1:50; enzyme:protein) for 6 hours at 37° C. Tandem mass tag (TMT) reagents (Thermo Fisher Scientific) were dissolved in anhydrous acetonitrile (ACN) according to manufacturer instructions. […] The sample channels were combined at a 1:1:1:1:1:1:1:1:1:1:1 ratio, desalted using C18 solid phase extraction cartridges (Waters®) and analyzed by LC-MS for channel ratio comparison. Samples were then combined using the adjusted volumes determined in the channel ratio analysis and dried down in a speed vacuum. […]
compound,measurement,setting,value
"C=CCn1c(=O)c2cnc(Nc3ccc(N4CCN(CCCNc5cccc6c5C(=O)N(C5CCC(=O)NC5=O)C6=O)CC4)cc3)nc2n1-c1cccc(C(C)(C)O)n1 (stereo not drawn) [Compound 13, 4-((3-(4-(4-((2-allyl-1-(6-(2-hydroxypropan-2-yl)pyridin-2-yl)-3-oxo-2,3-dihydro-1H-pyrazolo[3,4-d]pyrimidin-6-yl)amino)phenyl)piperazin-1-yl)propyl)amino)-2-(2,6-dioxopiperidin-3-yl)isoindoline-1,3-dione]","Rescue of anti-proliferative activity, CRBN−/− versus WT MOLT4 cells","CRBN−/− MOLT4 cells; Example 28, FIG. 3A/3B, 72-hour",~15 fold
same,"Shift in cellular IC50, CRBN−/− versus parental MOLT4 cells","CRBN−/− MOLT4 cells; Example 32, FIG. 6A",approximately 6 fold
same,IC50,"CRBN−/− MOLT4 cells; Homo sapiens, MOLT-4, MOLT4 CRBN−/− cells, 72 hours, CellTiter-Glo, read-out: Antiproliferative IC50",2220 nM
same,ZFP91 degradation by proteomics,MOLT4 proteome,low levels of ZFP91 degradation
same,PLK1 downregulation by proteomics,MOLT4 proteome; 2 hours,No downregulation of PLK1
same,Wee1 abundance Log2FC,MOLT4 proteome; 2 hours,−1.97

# From patent US12318452B2, “Degraders of WEE1 kinase” (DANA-FARBER CANCER INSTITUTE, INC., priority 2018, dated 2025)
